Assay results from paper PMC10447463, “Data-mining unveils structure–property–activity correlation of viral infectivity enhancing self-assembling peptides” (Nature Communications, 2023).
Read-outs that look alike come from different tables or passages of the source.

What was measured:
[1] = Zeta-potential measurement; type: physicochemical; settings: for Zeta-pot. / mV: zeta potential of peptide, Fig S15 source data
Procedure, shortened: (§1)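 One-day room-temperature aggregation at 1 mg/mL in PBS (pH 7.4) preceded measurement; samples then went into 1 mM KCl. Triplicates per sample, two independent experiments averaged.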

[2] = type: physicochemical; set-up: key to Fibril / Fibril Formation / TEM 2cat / Fibril: 1 = fibrils present; 0 non-fibrillar structures
[3] = Turbidity, derived count rate of scattered light; type: physicochemical
Procedure, shortened: as §1

[4] = system: HIV-1 infection of TZM-bl cells; assay: HIV-1 infectivity enhancement assay, β-galactosidase luminescence; type: cell-based; settings: for Log10 Inf. rel. to EF-C: log10 of HIV-1 infection of TZM-bl cells relative to EF-C, Fig S15 source data, asymmetric std dev errors; for Absolute Infectivity / RLU /s (Feb2021): figures match the 1.3 µM column
[5] = derived count rate of scattered light, mean, std deviation in separate column
[6] = Feb2021 run, infectivity n-fold relative to virus alone
[7] = Feb2021 run, log10 of infectivity relative to EF-C
[8] = Feb2021 run, n-fold infectivity relative to EF-C
[9] = infectivity class (low / medium / high) of each library peptide, main list in c1-c6, same classes repeated in sub-lists of sequences containing the hydrophobicity/charge patterns P+,H0,P+,H0,P0,H0,P0, P+,H0,P0,H0,P0,H0,P0, P+,H0,P0,H0
[10] = infectivity class (low / medium / high) of the peptide in the sequence-pattern analysis, Fig. S22-A4, class limits not given
[11] = derived count rate of scattered light
[12] = Feb2021, infectivity relative to virus only
[13] = Feb2021, log10 of infectivity relative to EF-C
[14] = Feb2021, n-fold infectivity relative to EF-C

Substance	Zeta category ( +1 = if > 4 mV;-1 = if < -4 mV; 0 = -4mV to 4 mV) [1]	Zeta Pot. / mV ([1]; mean, Std in separate column)	Zeta-pot. / mV [1]	TEM: 1= fibrils, 0= aggregates (micelle), 0.5 = aggregates and fibrils, -1 = nothing obersved, STD prep [2]	Zeta Count Rate / kcps [3, 5]	n-fold to virus (Feb2021) [4, 6]	Log10 of Rel to EFC (Feb2021) [4, 7]	Rel-to EFC (Feb-2021) [4, 8]	infectivity [4, 9]	infectivity [4, 10]	Log10 Inf. rel. to EF-C [4]	Zeta Pot. / mV [1]	Zeta Count Rate Category ([3]; category 1 / 0, no key given)	Zeta Count Rate / kcps [3, 11]	Absolute Infectivity / RLU /s (Feb2021) ([4]; Feb2021)	n-fold to virus (Feb2021) [4, 12]	Log10 of Rel to EFC (Feb2021) [4, 13]	Rel-to EFC (Feb-2021) [4, 14]	further results
RGDKIKIQINMC [psis29]	1 (+1 = if > 4 mV)	12.2 mV	12.2 mV	1	1404 kcps	44.93	0.02911	1.069	high	high	0.02911	–	–	–	–	–	–	–	Zeta category ( +1 = if > 4 mV;-1 = if < -4 mV; 0 = -4mV to 4 mV) ([1]; FigS26): 1 (+1 = if > 4 mV); TEM: 1= fibrils, 0= aggregates (micelle), 0.5 = aggregates and fibrils, -1 = nothing obersved, STD prep ([2]; FigS26): 1; Zeta Count Rate / kcps ([3]; derived count rate from zeta measurement, mean): 1404 kcps; Zeta Count Rate Category ([3]; key not given): 1; Rel-to EFC (Feb-2021) ([4]; infectivity enhancement relative to EF-C (=1), Feb2021 run): 1.069; n-fold to virus (Feb2021) ([4]; infectivity n-fold relative to virus only, Feb2021 run): 44.93; Log10 of Rel to EFC (Feb2021) ([4]; log10 of infectivity relative to EF-C, Feb2021 run): 0.02911
RGDKIKIQINMWQ [MG9a]	1 (+1 = if > 4 mV)	6.59 mV	6.59 mV	0.5	1554 kcps	32.06	-0.1175	0.763	high	high	-0.1175	–	–	–	–	–	–	–	Zeta category ( +1 = if > 4 mV;-1 = if < -4 mV; 0 = -4mV to 4 mV) ([1]; category from zeta potential): 1 (+1 = if > 4 mV); Zeta Pot. / mV ([1]; mean, Std Zeta in next column): 6.59 mV; Zeta Count Rate Category ([3]; category 1 or 0 from count rate, key not given): 1; Zeta Count Rate / kcps ([3]; derived count rate of scattered light, mean, std deviation in next column): 1554 kcps; Log10 of Rel to EFC (Feb2021) ([4]; Feb2021, Log10 of infectivity relative to EF-C): -0.1175; Rel-to EFC (Feb-2021) ([4]; Feb2021, n-fold enhancement relative to EF-C): 0.763
RGECKFKFQF [CN16]	1 (+1 = if > 4 mV)	–	23.97 mV	1	–	–	–	–	medium	–	-0.4776	23.97 mV	1	219.3 kcps	7411 RLU /s	13.99	-0.4776	0.3329	–
RGEKIKIQINM [CN18]	1 (+1 = if > 4 mV)	–	15.3 mV	1	–	–	–	–	medium	–	-0.6134	15.3 mV	1	594.6 kcps	7838 RLU /s	10.23	-0.6134	0.2436	–
RINFWFW	–	–	–	–	–	–	–	–	–	–	–	–	–	–	–	–	–	–	Zeta-Potential / mV ([1]; mean, Figure 6C): 10.8 mV; Fibril / Fibril Formation ([2]; TEM, 1 mg/mL, uranyl acetate stain, qualitative): 0; Count Rate / kcps ([3]; derived count rate of scattered light at 633 nm, 173°, from zeta-potential measurement, 0.1 mg/mL in 1 mM KCl after 1 d at 1 mg/mL in PBS, turbidity / microscopic aggregation, mean of triplicate): 50995.8 kcps; Log10 Count Rate ([3]; log10 of derived count rate of scattered light, Figure 6C): 4.708; Log10 Count Rate ([3]; logarithm of count rate in kcps): 4.708; Log10 Infection Rel EF-C ([4]; log10 of infection relative to EF-C, Figure 6C): -1.347; Inf. rel. EF-C ([4]; n-fold infection vs virus only, relative to that of EF-C, 1.3 µM peptide): 0.04
